# Measurements from US20150072935A1, “COMPOSITION AND EXTERNAL APPLICATION FOR ACCELERATION OF MUSCLE DIFFERENTIATION AND IMPROVING OF MUSCLE MASS” (NEOPHARM CO., LTD., priority 2013, published 2015).
# Numbered stars: 1 amine (or outer) side, 2 acyl side, 3 side chain; on linkers, the order of the positions; unused ones are H or OH. Square brackets hold non-standard residues; d marks the D form. Peptide text beside a SMILES is read from it. * marks the point of attachment. ξ: configuration not given here. Biotin = O=C1N[C@H]2[C@H](CS[C@H]2CCCCC(=O)*)N1; X1 = O=C(C(CC1=NCNC1)N[*:1])[*:2]; ξW = NC(Cc1c[nH]c2ccccc12)C(=O)O; ξF = NC(Cc1ccccc1)C(=O)O; ξK = NCCCCC(N)C(=O)O; ξA = CC(N)C(=O)O
# Assays:
# C2C12 myoblast cells [1] = experiment: Muscle differentiation promotion in C2C12 myoblast cells depending on differentiation time, western blotting; format: cell-based; details: differentiation medium with 2% horse serum, 50 uM, after 1, 2 and 3 days of differentiation induction, western blotting (FIG. 2)
# Experimental: Undifferentiated C2C12 myoblast cells were cultured in a dish having a diameter of 100 mm using a DMEM with 10% fetal bovine serum (FBS). When the cells covered about 70% of an area, the cells were seeded in a 6-well dish at 8×10^5/well and cultured until the cells covered 90% of an area. Thereafter, muscle differentiation was induced using a differentiation medium with 2% horse serum. In this case, the cells were treated with a myotide (Chemical Formula 2, Incospharm Corp.) composition (0.1% DMSO in phosphate buffer saline) of the present invention at a content of 50 uM. After 1, 2, and 3 days of differentiation induction, cell lysis was performed using a lysis buffer, and a degree of muscle differentiation was confirmed by western blotting.
# C2C12 myoblast cells [2] = experiment: Muscle differentiation promotion in C2C12 myoblast cells, western blotting of muscle proteins, concentration dependence; format: cell-based; details: differentiation medium with 2% horse serum, 0, 10 and 100 uM, after 3 days of differentiation induction, western blotting (FIG. 1)
# Experimental: Undifferentiated C2C12 myoblast cells were cultured in a dish having a diameter of 100 mm using a Dulbecco's modified Eagle's medium (DMEM) with 10% fetal bovine serum (FBS). When the cells covered about 70% of an area, the cells were seeded in a 6-well dish at 8×10^5/well and cultured until the cells covered 90% of an area. Thereafter, muscle differentiation was induced using a differentiation medium with 2% horse serum. In this case, the cells were treated with a myotide (Chemical Formula 2, Incospharm Corp.) composition (0.1% DMSO in phosphate buffer saline) of the present invention at contents of 0, 10, and 100 uM. The differentiation medium was changed into a new differentiation medium containing […] every 24 hours, and after 3 days of differentiation induction, muscles cell lysis was performed using a cell lysis buffer, followed by western blotting. In order to confirm a degree of muscle differentiation, protein expression amounts of myosin heavy chain I, caveolin-3, and myogenin, which are representative protein of muscles, were observed. […] Therefore, the composition according to the present invention promoted muscle differentiation.
structure (smiles),measurement,setting,value
CC(NC(=O)C(Cc1c[nH]c2ccccc12)NC(=O)C(CC1=NCNC1)NC(=O)CCCC[C@@H]1SC[C@@H]2NC(=O)N[C@@H]21)C(=O)NC(Cc1c[nH]c2ccccc12)C(=O)NC(Cc1ccccc1)C(=O)NC(CCCCN)C(N)=O (some centres unmarked) [myotide] (Biotin-[X1][ξW][ξA][ξW][ξF][ξK]-NH2),"expression of muscle proteins (myosin heavy chain I, caveolin-3, and myogenin)",C2C12 myoblast cells [1],increased
same,"expression of muscle proteins (myosin heavy chain I, caveolin-3, myogenin)",C2C12 myoblast cells [2],concentration-dependently increased
